Measurements reported in ChEMBL document CHEMBL1649086, “Evaluation of novel N1-methyl-2-phenylindol-3-ylglyoxylamides as a new chemotype of 18 kDa translocator protein-selective ligand suitable for the development of positron emission tomography radioligands” (J Med Chem, 2011).
Calls of active or inactive are those of the source. No cut-off for these calls is given here.

What was measured:
[1] = test system: GABA-A receptor, central benzodiazepine site (Rattus norvegicus); assay: Displacement of [3H]flumazenil from central benzodiazepine site of GABA-A receptor in rat cerebral cortex membrane after 90 mins
Translocator protein = Translocator protein (Rattus norvegicus, UniProt P16257); assay: Displacement of [3H]PK11195 from TSPO in rat kidney mitochondrial membrane
Translocator protein, sequence (P16257 whole entry, looked up): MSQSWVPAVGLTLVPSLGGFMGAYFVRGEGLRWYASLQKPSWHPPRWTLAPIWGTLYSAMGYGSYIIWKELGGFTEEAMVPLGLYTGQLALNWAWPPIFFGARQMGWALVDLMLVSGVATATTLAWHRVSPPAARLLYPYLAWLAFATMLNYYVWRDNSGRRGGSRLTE

[2] = Drug level in monkey putamen at 0.155 to 0.859 nmol/kg, iv after 40 mins; format: ADME, organism-based, Macaca mulatta; conditions: rhesus monkey, in vivo
Plasma = assay: Fraction unbound in monkey plasma at 0.155 to 0.859 nmol/kg, iv by PET analysis; format: ADME, organism-based, Macaca mulatta; conditions: rhesus monkey, in vivo

SMILES | Activity [1] | Ki (Translocator protein) | SUV [2] | Fu (Plasma)
CCCN(CCC)C(=O)C(=O)c1c(-c2cc[11c]([N+](=O)[O-])cc2)n(C)c2ccccc12 | – | – | 2.32 | 0.71%
CCCN(CCC)C(=O)C(=O)c1c(-c2ccc(F)cc2)[nH]c2ccccc12 | inactive | – | – | –
CCCCN(CC)C(=O)C(=O)c1c(-c2ccccc2)[nH]c2ccccc12 | inactive | – | – | –
CCCN(CCC)C(=O)C(=O)c1c(-c2ccccc2)[nH]c2ccccc12 | inactive | – | – | –
CCCCCCN(CCCCCC)C(=O)C(=O)c1c(-c2ccccc2)n(C)c2ccccc12 | inactive | 0.299 nM | – | –
CCCCCCN(CCCCCC)C(=O)C(=O)c1c(-c2ccc(F)cc2)[nH]c2ccccc12 | inactive | – | – | –
CCCCCN(C)C(=O)C(=O)c1c(-c2ccccc2)n(C)c2ccccc12 | inactive | 38.2 nM | – | –
CCCCN(CCCC)C(=O)C(=O)c1c(-c2ccccc2)[nH]c2ccccc12 | inactive | – | – | –
CCCCCCN(CCCCCC)C(=O)C(=O)c1c(-c2ccccc2)[nH]c2ccccc12 | inactive | – | – | –
CCCN(CCC)C(=O)C(=O)c1c(-c2ccccc2)[nH]c2ccc(F)cc12 | inactive | – | – | –
CCCCN(C)C(=O)C(=O)c1c(-c2ccccc2)[nH]c2ccccc12 | inactive | – | – | –
CCCCCN(C)C(=O)C(=O)c1c(-c2ccccc2)[nH]c2ccccc12 | inactive | – | – | –
CCCN(CCC)C(=O)C(=O)c1c(-c2ccc([N+](=O)[O-])cc2)n(C)c2ccccc12 | – | 5.7 nM | – | –

Continued, values first:

Activity [1] | Ki (Translocator protein) | SUV [2] | Fu (Plasma) | SMILES
inactive | 1.8 nM | – | – | CN(Cc1ccccc1)C(=O)C(=O)c1c(-c2ccc(F)cc2)[nH]c2ccccc12
inactive | 23.7 nM | – | – | CCCN(CCC)C(=O)C(=O)c1c(-c2ccccc2)n(C)c2ccc(F)cc12
inactive | 20.9 nM | – | – | CN(Cc1ccccc1)C(=O)C(=O)c1c(-c2ccccc2)n(C)c2ccccc12
inactive | 19.5 nM | – | – | CCCN(CCC)C(=O)C(=O)c1c(-c2ccccc2)n(C)c2ccccc12
inactive | 0.3 nM | – | – | CCCCN(CCCC)C(=O)C(=O)c1c(-c2ccccc2)n(C)c2ccccc12
inactive | – | – | – | CCN(Cc1ccccc1)C(=O)C(=O)c1c(-c2ccccc2)[nH]c2ccccc12
inactive | 12 nM | – | – | CN(Cc1ccccc1)C(=O)C(=O)c1c(-c2ccccc2)[nH]c2ccccc12
inactive | 6.77 nM | – | – | CN(Cc1ccccc1)C(=O)C(=O)c1c(-c2ccc(F)cc2)n(C)c2ccccc12
inactive | 1.07 nM | – | – | CCCCCCN(CCCCCC)C(=O)C(=O)c1c(-c2ccc(F)cc2)n(C)c2ccccc12
inactive | 19.8 nM | – | – | CCCN(CCC)C(=O)C(=O)c1c(-c2ccc(F)cc2)n(C)c2ccccc12
inactive | 2.92 nM | – | – | CCN(Cc1ccccc1)C(=O)C(=O)c1c(-c2ccccc2)n(C)c2ccccc12
inactive | 60.2 nM | – | – | CCCCN(CC)C(=O)C(=O)c1c(-c2ccccc2)n(C)c2ccccc12
inactive | 190 nM | – | – | CCCCN(C)C(=O)C(=O)c1c(-c2ccccc2)n(C)c2ccccc12
